PMC8843100, “Development of newly synthesised quinazolinone-based CDK2 inhibitors with potent efficacy against melanoma” (Journal of Enzyme Inhibition and Medicinal Chemistry, 2022)

Tests used:
[1] = system: UACC-62; experiment: NCI-60 single dose screen, sulforhodamine B; format: cell-based, human; settings: Melanoma UACC-62; single dose 10^−5 M
Method: (§1) In this research, all of the newly synthesised quinazolinones were subjected to in vitro anticancer screening by the National Cancer Institute (USA) against 60 different human cell lines including leukaemia, non-small cell lung cancer, colon cancer, CNS cancer, melanoma, ovarian cancer, renal cancer, prostate cancer, and breast cancer. The tested compounds were evaluated at a single dose (10^−5 M). […] Regarding the benzenesulfonamide counterparts, the introduction of an electron-withdrawing group on the benzenesulfonamide moiety increased the inhibitory activity on the glioblastoma cell line SNB-75 as depicted by the chloro derivative 5c (GI% = 63.09) which was higher than that of the unsubstituted derivative 5a (GI% = 40.06) and the methyl derivative 5b (GI% = 33.03).
(§2) 1. Cytotoxicity screening against a panel of 60 human tumor cell lines
(§3) All the compounds were selected for NCI-60 Human Tumor Cell Lines Screen by the Developmental Therapeutics Program (DTP) at the National Cancer Institute (NCI), Maryland, USA. The operation of this screen utilizes 60 different human tumor cell lines, representing leukemia, non-small-cell lung cancer, colon cancer, CNS cancer, melanoma, ovarian cancer, renal cancer, prostate cancer and breas t cancer.
(§4) The compounds were supplied as dry powder and a single concentration is tested in all 60 cell lines at a single dose of 10 µM solution in dimethyl sulfoxide (DMSO) using Sulforhodamine B assay. Briefly, cells are seeded in 96 well plates at an appropriate density and incubated for 1 day. After 1 day, some of the plates are processed to determine the density time zero. To the remaining plates, compounds are added at 10 µM concentration. Plates are incubated a further 2 days, then fixed and staine d with sulphorhodamine B. Growth inhibition is calculated relative to cells without drug treatment and the time zero control. The use of a time zero control allows the determination of cell kill as well as net growth inhibition. […]

[2] = system: NCI-H322M; experiment: NCI-60 single dose screen, sulforhodamine B; format: cell-based, human; settings: Non-small cell lung cancer NCI-H322M; single dose 10^−5 M
Method: as §1, §2, §3, §4

[3] = system: K-562; experiment: NCI-60 single dose screen, sulforhodamine B; format: cell-based, human; settings: Leukaemia K-562; single dose 10^−5 M
Method: as §1, §2, §3, §4

[4] = system: COLO 205; experiment: NCI-60 single dose screen, sulforhodamine B; format: cell-based, human; settings: Colon cancer COLO 205; single dose 10^−5 M
Method: as §1, §2, §3, §4

[5] = system: KM12; experiment: NCI-60 single dose screen, sulforhodamine B; format: cell-based, human; settings: Colon cancer KM12; single dose 10^−5 M
Method: as §1, §2, §3, §4

[6] = system: DU-145; experiment: NCI-60 single dose screen, sulforhodamine B; format: cell-based, human; settings: Prostate cancer DU-145; single dose 10^−5 M
Method: as §1, §2, §3, §4

[7] = system: OVCAR-3; experiment: NCI-60 single dose screen, sulforhodamine B; format: cell-based, human; settings: Ovarian cancer OVCAR-3; single dose 10^−5 M
Method: as §1, §2, §3, §4

[8] = system: NCI-H460; experiment: NCI-60 single dose screen, sulforhodamine B; format: cell-based, human; settings: Non-small cell lung cancer NCI-H460; single dose 10^−5 M
Method: as §1, §2, §3, §4

[9] = system: NCI-H522; experiment: NCI-60 single dose screen, sulforhodamine B; format: cell-based, human; settings: Non-small cell lung cancer NCI-H522; single dose 10^−5 M
Method: as §1, §2, §3, §4

[10] = system: OVCAR-5; experiment: NCI-60 single dose screen, sulforhodamine B; format: cell-based, human; settings: Ovarian cancer OVCAR-5; single dose 10^−5 M
Method: as §1, §2, §3, §4

[11] = system: NCI-H226; experiment: NCI-60 single dose screen, sulforhodamine B; format: cell-based, human; settings: Non-small cell lung cancer NCI-H226; single dose 10^−5 M
Method: as §1, §2, §3, §4

[12] = system: UO-31; experiment: NCI-60 single dose screen, sulforhodamine B; format: cell-based, human; settings: Renal cancer UO-31; single dose 10^−5 M
Method: as §1, §2, §3, §4

[13] = system: HS 578T; experiment: NCI-60 single dose screen, sulforhodamine B; format: cell-based, human; settings: Breast cancer HS 578T; single dose 10^−5 M
Method: as §1, §2, §3, §4

[14] = system: HOP-62; experiment: NCI-60 single dose screen, sulforhodamine B; format: cell-based, human; settings: Non-small cell lung cancer HOP-62; single dose 10^−5 M
Method: as §1, §2, §3, §4

[15] = system: TK-10; experiment: NCI-60 single dose screen, sulforhodamine B; format: cell-based, human; settings: Renal cancer TK-10; single dose 10^−5 M
Method: as §1, §2, §3, §4

[16] = system: U251; experiment: NCI-60 single dose screen, sulforhodamine B; format: cell-based, human; settings: CNS cancer U251; single dose 10^−5 M
Method: as §1, §2, §3, §4

[17] = system: MDA-MB-231/ATCC; experiment: NCI-60 single dose screen, sulforhodamine B; format: cell-based, human; settings: Breast cancer MDA-MB-231/ATCC; single dose 10^−5 M
Method: as §1, §2, §3, §4

[18] = system: SR; experiment: NCI-60 single dose screen, sulforhodamine B; format: cell-based, human; settings: Leukaemia SR; single dose 10^−5 M
Method: as §1, §2, §3, §4

[19] = system: EKVX; experiment: NCI-60 single dose screen, sulforhodamine B; format: cell-based, human; settings: Non-small cell lung cancer EKVX; single dose 10^−5 M
Method: as §1, §2, §3, §4

[20] = system: A498; experiment: NCI-60 single dose screen, sulforhodamine B; format: cell-based, human; settings: Renal cancer A498; single dose 10^−5 M
Method: as §1, §2, §3, §4

[21] = system: UACC-257; experiment: NCI-60 single dose screen, sulforhodamine B; format: cell-based, human; settings: Melanoma UACC-257; single dose 10^−5 M
Method: as §1, §2, §3, §4

[22] = system: SNB-19; experiment: NCI-60 single dose screen, sulforhodamine B; format: cell-based, human; settings: CNS cancer SNB-19; single dose 10^−5 M
Method: as §1, §2, §3, §4

[23] = system: HCT-116; experiment: NCI-60 single dose screen, sulforhodamine B; format: cell-based, human; settings: Colon cancer HCT-116; single dose 10^−5 M
Method: as §1, §2, §3, §4

[24] = system: LOX IMVI; experiment: NCI-60 single dose screen, sulforhodamine B; format: cell-based, human; settings: Melanoma LOX IMVI; single dose 10^−5 M
Method: as §1, §2, §3, §4

[25] = system: SF-539; experiment: NCI-60 single dose screen, sulforhodamine B; format: cell-based, human; settings: CNS cancer SF-539; single dose 10^−5 M
Method: as §1, §2, §3, §4

[26] = system: SNB-75; experiment: NCI-60 single dose screen, sulforhodamine B; format: cell-based, human; settings: CNS cancer SNB-75; single dose 10^−5 M
Method: as §1, §2, §3, §4

[27] = system: SW-620; experiment: NCI-60 single dose screen, sulforhodamine B; format: cell-based, human; settings: Colon cancer SW-620; single dose 10^−5 M
Method: as §1, §2, §3, §4

[28] = system: BT-549; experiment: NCI-60 single dose screen, sulforhodamine B; format: cell-based, human; settings: Breast cancer BT-549; single dose 10^−5 M
Method: as §1, §2, §3, §4

[29] = system: MOLT-4; experiment: NCI-60 single dose screen, sulforhodamine B; format: cell-based, human; settings: Leukaemia MOLT-4; single dose 10^−5 M
Method: as §1, §2, §3, §4

[30] = system: HT29; experiment: NCI-60 single dose screen, sulforhodamine B; format: cell-based, human; settings: Colon cancer HT29; single dose 10^−5 M
Method: as §1, §2, §3, §4

[31] = system: SK-MEL-28; experiment: NCI-60 single dose screen, sulforhodamine B; format: cell-based, human; settings: Melanoma SK-MEL-28; single dose 10^−5 M
Method: as §1, §2, §3, §4

COc1ccc(NC(=O)CNn2c(COc3ccccc3)nc3ccccc3c2=O)cc1 [Compound 4b, N-(4-methoxyphenyl)-2-((4-oxo-2-(phenoxymethyl)quinazolin-3(4H)-yl)amino)acetamide]
melting point: 146 to 148 °C
GI% at 10^−5 M [1]: – (– means GI < 10%)
GI% at 10^−5 M [2]: – (– means GI < 10%)
GI% at 10^−5 M [3]: – (– means GI < 10%)
GI% at 10^−5 M [4]: – (– means GI < 10%)
GI% at 10^−5 M [5]: – (– means GI < 10%)
GI% at 10^−5 M [6]: – (– means GI < 10%)
GI% at 10^−5 M [7]: – (– means GI < 10%)
GI% at 10^−5 M [8]: – (– means GI < 10%)
GI% at 10^−5 M [9]: 12.54%
GI% at 10^−5 M [10]: – (– means GI < 10%)
GI% at 10^−5 M [11]: – (– means GI < 10%)
GI% at 10^−5 M [12]: 15.77%
GI% at 10^−5 M [13]: – (– means GI < 10%)
GI% at 10^−5 M [14]: 12.71%
GI% at 10^−5 M [15]: – (– means GI < 10%)
GI% at 10^−5 M [16]: – (– means GI < 10%)
GI% at 10^−5 M [17]: 11.38%
GI% at 10^−5 M [18]: – (– means GI < 10%)
GI% at 10^−5 M [19]: 10.17%
GI% at 10^−5 M [20]: 34.65%
GI% at 10^−5 M [21]: – (– means GI < 10%)
GI% at 10^−5 M [22]: – (– means GI < 10%)
GI% at 10^−5 M [23]: – (– means GI < 10%)
GI% at 10^−5 M [24]: – (– means GI < 10%)
GI% at 10^−5 M [25]: – (– means GI < 10%)
GI% at 10^−5 M [26]: 21.9%
GI% at 10^−5 M [27]: – (– means GI < 10%)
GI% at 10^−5 M [28]: – (– means GI < 10%)
GI% at 10^−5 M [29]: – (– means GI < 10%)
GI% at 10^−5 M [30]: – (– means GI < 10%)
GI% at 10^−5 M [31]: – (– means GI < 10%)

O=c1c2ccccc2nc(COc2ccccc2)n1NS(=O)(=O)c1ccc(Cl)cc1 [Compound 5c, 4-chloro-N-(4-oxo-2-(phenoxymethyl)quinazolin-3(4H)-yl)benzenesulfonamide]
melting point: 208 to 210 °C
GI% at 10^−5 M [1]: 23.06%
GI% at 10^−5 M [2]: 17.13%
GI% at 10^−5 M [3]: 52.75%
GI% at 10^−5 M [4]: – (– means GI < 10%)
GI% at 10^−5 M [5]: 44.77%
GI% at 10^−5 M [6]: – (– means GI < 10%)
GI% at 10^−5 M [7]: – (– means GI < 10%)
GI% at 10^−5 M [8]: – (– means GI < 10%)
GI% at 10^−5 M [9]: 30.63%
GI% at 10^−5 M [10]: – (– means GI < 10%)
GI% at 10^−5 M [11]: 17.00%
GI% at 10^−5 M [12]: 37.25%
GI% at 10^−5 M [13]: 24.96%
GI% at 10^−5 M [14]: 25.00%
GI% at 10^−5 M [15]: – (– means GI < 10%)
GI% at 10^−5 M [16]: 12.24%
GI% at 10^−5 M [17]: 32.6%
GI% at 10^−5 M [18]: 42.42%
GI% at 10^−5 M [19]: 25.19%
GI% at 10^−5 M [20]: 36.68%
GI% at 10^−5 M [21]: – (– means GI < 10%)
GI% at 10^−5 M [22]: 20.21%
GI% at 10^−5 M [23]: 16.40%
GI% at 10^−5 M [24]: 16.40%
GI% at 10^−5 M [25]: 13.14%
GI% at 10^−5 M [26]: 63.09%
GI% at 10^−5 M [27]: 30.94%
GI% at 10^−5 M [28]: – (– means GI < 10%)
GI% at 10^−5 M [29]: 30.51%
GI% at 10^−5 M [30]: 20.01%
GI% at 10^−5 M [31]: 12.91%
